Measured values: patent publication US5462744A, “Transdermal system for the administration of pharmacological compounds under pH-controlled conditions” (Boehringer Ingelheim KG, priority 1990, dated 1995)
Where “and” joins values, the source holds several entries; their conditions need not be identical. Equal entries are not always repeated. Entries after “also recorded” stand apart in the source; their conditions may differ.

Legend:
[1] = pH of the skin surface underneath the system after 5 days' wearing, surface pH electrode (FIG. 6); type: in vivo, human; details: in the polymethacrylate matrix
Source text: The systems tested differ in their concentration of citric acid in the polymethacrylate matrix. It is clear that only a citric acid concentration of more than 1% can bring about any significant change in the surface pH of the skin. The words "values 1, 2 and 3" in FIG. 7 refer to test subjects.

[2] = Permeability of pH-modified clenbuterol CPA through human skin (Franz cell release apparatus); type: in vitro ADME
Description: Permeability of pH-modified clenbuterol CPA through human skin:
Composition of the CPA's:
Polymethacrylate 90% 90%
A Franz cell was used as the release apparatus. This is a conventional method of testing the release of drugs from pharmaceutical formulations. Samples were taken after 24 hours and 48 hours and the clenbuterol content was determined.

[3] = Flux rate of clenbuterol through human skin depending on pH (FIG. 9); type: in vitro ADME; details: pH range 6.0 to 8.5 versus higher and lower pH
Source text: The flux rate of an active substance through the skin is defined as the quantity of active substance per unit of area of the skin and per unit of time and is normally given in [μg/cm^2.h].
Curve B illustrates the water solubility of the substance depending on the pH value [mg/ml]. […] (The right-hand ordinate in FIG. 9 is shown logarithmically). [μg/cm^2. h]

[4] = transdermal administration, prior practice; cited from earlier work

Row | Compound | citric acid concentration that brings about significant change in the surface pH of the skin [1] | diffusion rate, alkaline versus acid pH ([2]; pH 10.0 vs pH 3.5) | Clenbuterol Diffusion after 24 hours ([2]; pH-value 10.0 (5% Na2CO3), 24 hours, 5% clenbuterol in polymethacrylate) | Clenbuterol Diffusion after 48 hours ([2]; pH-value 10.0 (5% Na2CO3), 48 hours, 5% clenbuterol in polymethacrylate) | flux rate depending on pH [3] | constancy of blood level values [4]
1 | O=C(O)CC(O)(CC(=O)O)C(=O)O [Citric acid, citric acid] | more than 1% | – | – | – | – | –
2 | CC(C)(C)NCC(O)c1cc(Cl)c(N)c(Cl)c1 (stereo not drawn) [Clenbuterol] | – | a higher diffusion rate is found at an alkaline pH than at an acid pH | 7.8 μg/cm^2 and 11.44 μg/cm^2 and 9.84 μg/cm^2 | 21.7 μg/cm^2 and 27.3 μg/cm^2 and 24.2 μg/cm^2 | reaches a maximum in the pH range specified above, but decreases sharply at higher and lower pH levels; also recorded: reduced drastically outside the pH range specified | has not hitherto resulted in constant blood level values
